Measurements reported in patent US9861702B2, “Lipid-conjugated rhamnose for immune system recruitment and oncotherapy” (WISCONSIN ALUMNI RESEARCH FOUNDATION, priority 2012, dated 2018).
Entries after “also recorded” stand apart in the source; their conditions may differ. Where two headings read alike, the source gives them in different places.

What was measured:
[1] = tested on: antibodies in human serum; assay: Biosensor (SPR) analysis of antibody levels in human serum against immobilized biotinylated antigens; type: binding; conditions: 10% serum, after 5 minutes of serum exposure, biotinylated antigen on streptavidin chip
From the text: Biosensor analysis was used to evaluate levels of antibodies in human serum. Surface plasmon resonance (SPR) is an information-rich technique requiring only small amounts of material, and surfaces with immobilized compounds can be regenerated and used multiple times. Although this technique is most often associated with determination of kinetic parameters, it is also useful for rank ordering interactions with ligands and antibody characterization, and is compatible with serum. […] The biotinylated antigens were immobilized on streptavidin-coated sensor chips along with a biotinylated control peptide in a reference channel. Serum was collected from healthy volunteer donors under IRB-approved Human Subjects minimal risk protocol M-2005-1282 at the University of Wisconsin-Madison. To limit bulk refractive index changes and keep signal within the instrument's detection range, solutions of 10% serum were flowed across the chip, contacting antigens in this order: […] As a measure of antibody prevalence, corrected response units (RUantigen-RUreference) bound to each flow channel were compared after 5 minutes of serum exposure; more RU indicated greater antibody binding and therefore, a higher titer. […] Antibodies to rhamnose were further assessed with ELISA assays using immobilized rhamnose-BSA.

[2] = tested on: antibodies in human serum; assay: Stability of antigen-antibody complexes in serum, SPR loss of response units over 1 hour; type: binding; conditions: over one hour, corrected RU
Protocol: FIG. 3 also includes a Table showing percentage loss calculated as (RUT2)/RuT1. All RU were corrected by reference subtraction.
The relative stability of antigen-antibody complexes for DNP, αGal and Rha in serum was assessed by evaluating RU (corrected RU) as a function of time (over 1 hour). FIG. 3 illustrates the decay of RU with time for antigen-antibody complexes for the three antigens. Due to the complexity of these systems, exact kinetic parameters could not be determined; however the loss of response units over time provides an estimate rank ordering of dissociation rates and complex longevity.

M21 cells [3] = assay: Fluorescent lipid insertion levels, quantitative flow cytometry with calibration beads; type: cell-based
From the text: FIG. 5 is a graph showing the results of flow cytometry measurements to assess the levels of insertion of fluorescent lipid conjugates into M21 cells. See Example 4 and Scheme 6 for details. Under the treatment conditions used, insertion levels of approximately 3×10^6 lipids per cell was achieved. All three fluorescent labeled lipids inserted robustly into the cell membrane.
To estimate lipid insertion levels into model cells, three fluorescent lipid derivatives were synthesized: 101 an Alexa-Fluor® 488 dye conjugated to cholesterol, 102 Alexa-Fluor® 488 dye (Life Technologies) conjugated to POPE and 103 an Alexa-Fluor® 488 dye conjugated to DPoPE. M21 cells were treated with these lipids and assessed by quantitative flow cytometry using calibration beads to determine the number of fluorophores per cell. The results are illustrated in FIG. 5.

M21 cells [4] = assay: Chromium-51 release assay (CDC / ADCC); type: cell-based
Protocol: Experiments were performed using the art-recognized Chromium-51 (^51Cr) release assay to assess if Rha2-lipid conjugate 51 was capable of activating cellular responses ADCC.
M21 cells were treated with lipid as described in Example 6. Target cells are labeled with ^51Cr and the release of label is a measure of cell cytolysis. In this case, the cells were contacted with Na^51Cr label overnight which is somewhat longer than is typically employed in the assay.
This confirms results from Example 6 that Rha2-DPoPE was able to mediate CDC. Peripheral blood mononuclear cells (PBMCs) include immune effector cells some of which express CD16, the most important class of which is natural killer cells.

complement component C4d = assay: Activation of complement, deposition of complement component C4d on treated M21 cells, flow cytometry; type: cell-based; conditions: 25% normal human serum, 1 hour at 37° C.
Protocol: FIG. 6 is a graph showing the results of flow cytometry measurements of M21 cells treated with the indicated rhamnose-lipid conjugates, or with an antibody known to activate complement (14.18) exposed to normal human serum and subsequently stained for C4d, a marker of complement activation.
Rhamnose-lipid conjugates 4 (Rha1-DPoPE) and 51 (Rha2-DPoPE) were synthesized as described in Example 1. The ability of these compounds to activate complement was tested by looking for deposition of complement component C4d. M21 cells treated with buffer, rha1-DPoPE, rha2-DPoPE, or a control antibody known to activate complement (14.18) were exposed to 25% normal human serum for 1 hour at 37° C., washed and stained for C4d, and analyzed by flow cytometry. […] The 14.18 antibody employed was the Ch14.18-IL2 fusion protein [Gillies, S D; Lan, Y; Lo, K M; Super, M; Wesolowski, J (1999) “Improving the efficacy of antibody-interleukin 2 fusion proteins by reducing their interaction with Fc receptors.” Cancer Research vol. 59 (9) p. 2159-66.]

M21 cells [5] = type: cell-based; conditions: normal donor serum, FIG. 9
Protocol: The requisite amount of chloroform solution containing each lipid compound was measured into a glass vial. Chloroform was removed by blowing argon into the vial until all solvent was evaporated leaving a lipid film on the glass. The lipid film was hydrated with sufficient buffer (HBSS with 1% BSA) to yield a 0.1 mM solution for 30 minutes at room temperature. The vials were then sonicated in a water bath sonicator to cause the lipids to sheet off of the glass. It is believed that the lipids form vesicle structures in the buffer.
M21 cells were plated in a 12-well plate and allowed to grow over night. The next morning, the growth medium was removed and replaced with 0.5 mL of buffer (control) or lipid suspension. Cells were incubated in contact with lipids for 1 hour at 37° C. to allow for lipid insertion. The lipid suspension was then aspirated and cells were striped from the plate with 1 mM EDTA in PBS pH 7.4. The EDTA/cell suspensions were diluted ˜1:1 with HBSS/BSA buffer, spun down and resuspended at 500,000 cells mL^−1. Cell samples where CD55 and CD59 were to remain functional were diluted 1:1 in HBSS/BSA buffer. Cell samples in which complement inhibitory factors were to be blocked were diluted 1:1 with HBSS/BSA containing 20 μg/mL of each blocking antibody (anti-CD55: clone 143-30 from Southern Biotech, anti-CD59: clone MEM-43 from Novus Biologicals) for a final concentration of 10 μg/mL of each antibody.
Cell suspensions (50 μL) were added to an opaque white 96-well plate in sextuplicate. […] (See plate illustration FIG. 7.) The plate was incubated at 37° C. for two hours to allow for complement activation and cell killing. After 2 hours, the plate was removed from the incubator and allowed to come to room temperature. […] Luminescence was read on a Tecan M1000 plate reader.
Luminescence values were averaged for each set of triplicate wells. Since luminescence correlates to viable cells and the heat killed serum wells provide a measure of non-specific cell death, the fraction of viable cells for each condition is calculated as (avg. luminescencenormal serum)/(avg. luminescenceheat killed serum). […]
FIG. 9 is a graph presenting results in terms of % viable cells for an experiment conducted with M21 cells as noted above which compared treatment of cells with lipid alone serum alone (negative control) (DPoPE), lipid+addition of CD55 and CD59 blocking antibodies, Rha2-lipid 51, Rha2-lipid 51+CD55 and CD59 blocking antibodies, 14.18-IL2 antibody (positive control), and 14.18-IL@antibody+CD55 and CD59 blocking antibodies. […] Cell Titer-Glo® assay (Promega) was used to measure living cells, Viability=(luminescence in wells treated with normal serum)/(luminescence of wells treated with heat inactivated serum).

M21 cells [6] = assay: DNP-lipid insertion into cell membranes, anti-DNP staining, flow cytometry; type: cell-based; conditions: M21 cells treated with DNP-lipid, stained with anti-DNP
From the text: FIG. 4 is a graph showing the results of flow cytometry measurement of M21 cells treated with or without DNP-lipid and stained with anti-DNP. DNP-lipid 100 (Avanti Polar Lipids, Alabaster, Ala.) was used for the experiment.
As an initial assessment of antigen-lipid insertion into cell membranes, a hapten-lipid conjugate, DNP-lipid (100, a dipalmitoleoyl phosphatidylethanolamine-DNP conjugate) and anti-DNP-antibody were used to determine if (1) lipids would insert into model M21 cell line and (2) if the antigen headgroups of the antigen-lipid conjugates would remain accessible to antibodies. M21 cells treated with the DNP-lipid followed by staining with anti-DNP were analyzed by flow cytometry (FIG. 4).

[7] = plus CD55 and CD59 blocking antibodies 10 μg/mL each

rhamnose
antibody prevalence (corrected response units bound, RUantigen-RUreference) [1]: more prevalent than those recognizing αGal in all cases; also recorded: equivalent or better to those recognizing DNP in most cases
loss of binding signal (response units) of antigen-antibody complex over time [2]: affinity advantage over those of both αGal and DNP

OC[C@H]1O[C@H](O[C@H]2[C@@H](O)[C@@H](CO)OC(O)[C@@H]2O)[C@H](O)[C@@H](O)[C@H]1O (stereo partly drawn) [αGal, Gal-α-1,3-Gal]
loss of binding signal (response units) of antigen-antibody complex over time [2]: signal loss was greater

CC(C)CCC[C@@H](C)[C@H]1CC[C@H]2[C@@H]3CC=C4C[C@H](OC(=O)NCCOCCOCCNC(=O)c5cccc(-c6c7ccc(=N)c(S(=O)(=O)O)c-7oc7c(S(=O)(=O)O)c(N)ccc67)c5C(=O)O)CC[C@]4(C)[C@H]3CC[C@]12C [Compound 101]
insertion into cell membranes, copy numbers (fluorophores per cell) (M21 cells [3]): around 3×10^6

CCCCCC/C=C\CCCCCCCC(=O)OC[C@H](COP(=O)(O)OCCN(CCCCO[C@@H]1OC(C)[C@H](O)[C@H](O)C1O)CCCCO[C@@H]1OC(C)[C@H](O)[C@H](O)C1O)OC(=O)CCCCCCC/C=C\CCCCCC (some centres unmarked) [Compound 51, Rha2-DPoPE]
51Cr release (cytotoxicity, CDC) (M21 cells [4]; serum alone, FIG. 10 left bar): Cr-51 was released
51Cr release (cytotoxicity) (M21 cells [4]; serum with PBMCs added, FIG. 10 right bar): cytotoxicity increased
complement activation (C4d staining) (complement component C4d): more efficient
% viability (M21 cells [5]; CD55 and CD59 functional): large decrease in viability
% viability (M21 cells [5]; [7]): significantly amplified

CCCCCCCCCCCCCCCC(=O)OC[C@H](COP(=O)(O)OCCNC(=O)CCCCCNc1ccc([N+](=O)[O-])cc1[N+](=O)[O-])OC(=O)CCCCCCCCCCCCCCC.N [DNP-lipid]
anti-DNP staining shift (membrane insertion, antigen head group accessibility) (M21 cells [6]): positive shift

O=[N+]([O-])c1ccc(O)c([N+](=O)[O-])c1 [DNP, 2,4-dinitrophenol]
loss of binding signal (response units) of antigen-antibody complex over time [2]: signal loss was greater

CCCCCC/C=C\CCCCCCCC(=O)OC[C@H](COP(=O)(O)OCCN)OC(=O)CCCCCCC/C=C\CCCCCC [DPoPE, 1,2-dipalmitoleoyl-sn-glycero-3-phosphoethanolamine]
% viability (M21 cells [5]; CD55 and CD59 functional): remain equally viable
% viability (M21 cells [5]; [7]): slight negative impact on cell survival

CCCCCC/C=C\CCCCCCCC(=O)OC[C@H](COP(=O)(O)OCCNCCCCO[C@@H]1OC(C)[C@H](O)[C@H](O)C1O)OC(=O)CCCCCCC/C=C\CCCCCC (some centres unmarked) [Compound 4, Rha1-DPoPE]
complement activation (C4d staining) (complement component C4d): activated complement
